The values that follow come from ChEMBL document CHEMBL1159297, “Anguillosporal, a new antibacterial and antifungal metabolite from the freshwater fungus Anguillospora longissima” (1995).

The subject of one assay is Staphylococcus aureus. In words: Antibacterial activity against Staphylococcus aureus ATCC 29213 by broth macrodilution method. In kind it is functional.
The next assay has as its system Candida albicans. As to the kind of experiment: Antifungal activity against Candida albicans ATCC 90029 by broth macrodilution method. In kind it is functional.

Converted amounts (≈) assume the structure as drawn.

The MIC is the lowest concentration found to suppress growth. High values mean a need for much substance, low ones inhibition by little substance.

For the molecule `CCCCC(C)c1cc(O)c(CC)c(O)c1C=O` (configuration not stated) [ANGUILLOSPORAL], the minimum inhibitory concentration (MIC) in the assay on Staphylococcus aureus came to 4 µg/mL (≈ 16 µM); against Candida albicans, 58 µg/mL (≈ 232 µM).
